Values of other authors as cited in US20230360801A1, “METHODS AND SYSTEMS OF IDENTIFYING INDIVIDUALS FOR PERIOPERATIVE NEUROCOGNITIVE DISORDER AND/OR POST-VIRAL COGNITIVE IMPAIRMENT” (Cambridge Cognition Limited, priority 2021, published 2023).

logP: 3.9
Structure (SMILES): CC(C)(Oc1ccc(C(=O)c2ccc(Cl)cc2)cc1)C(=O)O [fenofibric acid]
